From article PMC2747306 (Structure (London, England : 1993), 2009)

What was measured:
[1] = biological target: FimX^full-length (Pseudomonas aeruginosa, UniProt Q9HUK6); experiment: isothermal titration calorimetry; format: binding
[2] = biological target: FimX^EAL (Pseudomonas aeruginosa, UniProt Q9HUK6); experiment: isothermal titration calorimetry; format: binding
[3] = biological target: the molecule itself; experiment: AUC

Molecule | Kd [1] | Kd [2] | stoichiometry N [3]
Nc1nc2c(ncn2[C@@H]2O[C@@H]3CO[P@](=O)(O)O[C@H]4[C@@H](O)[C@H](n5cnc6c(=O)[nH]c(N)nc65)O[C@@H]4CO[P@](=O)(O)O[C@H]3[C@H]2O)c(=O)[nH]1 [c-di-GMP] | 125 nM | 104 nM | 
FimX^ΔEAL (residues 1-431: N-terminal response receiver, PAS and GGDEF domains) (domain or fragment) MAIEKKTIRLLILEDSQNEAERLVSLFRNAGHATRVHRLTSPEDLAETLQQSWDLLIAAPTSECLEPGEALATLRRQSRDIPFIQLVADNSSDAITDALMLGAQDALPQGEDERLVLVANRELAGLAERRARRAAELALREAEKRCQLLLDSSVDAITYVHDGMHIYANRSYMALFGYEDAEELEGLPVIDLIASCDQGAFKDFLKGYQNDQRQTELVCTGVKLDGQEFKARISLSAATYDGEPCIQVVIRGEVDNAELEEKLREVSSQDPVTGLYNRSHFLDLMDAAVQQAVTARKPSTLAYIHLNGYPSLQADHGLSGIDLLLGQLAGLMREQFGEEADLARFGDSIFAALFKGKTPEQAQAALQRLLKKVENHLFELNGRSAQATLSIGVAGLDEKTAKAQDVMNRAHRCADDAARKGGSQIKQYNPA |  |  | 2
